Results taken from PubChem BioAssay AID1963870 (Molecular Pharmacology Branch, DTP, NCI, 2024).

System: 292921-168-R-J2-PDC KRAS tumor spheroid viability
Experiment: Anticancer human tumor 292921-168-R-J2-PDC patient-derived pancreatic carcinoma cell line growth inhibition [KRAS2]
Conditions: spheroids with HUVEC and MSC; for IC50: curve of first compound; for viability, T/C: stronger effect = lower value; active = viability on the fitted dose curve at most 10% of control; inactive = the rest
From the text: Multicellular complex tumor spheroid response to RAS pathway inhibitors in combination with a targeted agents in patient-derived cell lines with oncogenic KRAS variants from multiple cancer types
A high-throughput screen of multi-cell type tumor spheroids was designed to identify active combinations of targeted small molecules and KRAS pathway inhibitors. Complex spheroids include a stromal component modeled by human endothelial cells (HUVEC) and fibroblasts modeled by human mesenchymal stem cells (MSCs). The concentration ranges selected for each drug and investigational agent were based upon clinically achievable concentrations if the clinical Cmax of the agent was known.
Compounds. The drugs and investigational agents: BI-3406 (NSC825286), BAY-293 (NSC824723), batoprotafib (TNO155; NSC825523), sotorasib (AMG 510; NSC818433), MRTX1257 (NSC819558), elimusertib (BAY 1895344; NSC800525), molibresib (GSK525762; NSC774829), temuterkib (LY3214996; NSC803410), venetoclax (NSC766270), alisertib (NSC759677), olaparib (NSC753686), talazoparib (NSC767125), erdafitinib (NSC781556), ipatasertib (NSC767898), cabozantinib (NSC761068), nintedanib (NSC756659), abemaciclib (NSC768073), docetaxel (NSC628503), trametinib (NSC758246), and sapanisertib (NSC764658) were obtained from the National Cancer Institute (NCI) Developmental Therapeutics Program Chemical Repository. The FDA-approved anticancer drug set is available from the Developmental Therapeutics Program. […] The stock solutions were prepared in dimethyl sulfoxide (DMSO, Sigma-Aldrich, St. Louis, MO, cat. D2650) at 800-fold the tested concentration and stored at -70 degrees C prior to their use. All drugs and investigational agents were tested over a range starting from a high concentration at or near the clinical Cmax and decreasing in half-log increments. If the clinical Cmax for an agent had not been determined, the highest concentration tested was 10 microM.
Cell Culture. All cells were maintained in an incubator at 37 degrees C and 5% CO2 with 95% humidity. The PDC lines were cultured according to standard operating procedures established by the NCI PDMR (https://pdmr.cancer.gov/sops/default.htm). Briefly, all PDCs were thawed and cultured in Matrigel-coated flasks prepared with a working solution of 1X Ham's F-12 nutrient mix, without supplementation (Invitrogen, Waltham, MA, cat. 11765054), 100 U/mL penicillin-streptomycin (Invitrogen, cat. 15140122), and 2.5% Matrigel (Corning Inc., Corning, NY, cat. 354248) for the first three passages. All PDCs were cultured in complete DMEM/F-12 media containing advanced DMEM/F-12 (Invitrogen, cat. 12634028), 4.9% defined fetal bovine serum, heat inactivated (HyClone Laboratories Inc., Logan, UT, cat. SH30070.03HI), 389 ng/mL hydrocortisone (Sigma-Aldrich, cat. H4001), 9.7 ng/mL human EGF recombinant protein (Invitrogen, cat. PHG0313), 23.4 microg/mL adenine (Sigma-Aldrich, cat. A2786), 97.3 U/mL penicillin-streptomycin (Invitrogen, cat. 15140122), 1.9 mM L-glutamine (Invitrogen, cat. 25030081), and 9.7 microM Y-27632 dihydrochloride (Tocris Bioscience, Bristol, United Kingdom, cat. 1254). The PDCs were cultured in complete DMEM/F12 media without 9.7 microM Y-27632 dihydrochloride for at least two passages prior to the screen. The established cell line HOP-62 was cultured in RPMI 1640 medium, HEPES (Invitrogen, cat. 22400105) with 10% defined fetal bovine serum (HyClone Laboratories Inc., cat. SH30070.03) and 2 mM L-glutamine (Invitrogen, cat. 25030081). The pooled donor HUVEC were cultured in endothelial cell growth medium 2 (PromoCell, Heidelberg, Germany, cat. C-22011) and the hMSC were cultured in mesenchymal stem cell growth medium 2 (PromoCell, cat. C-28009). For all experiments, HUVEC and hMSC were used at passages </=5, while the malignant cell lines were used at passages </=15. […]

[1] = second compound 0.1 µM, first compound 0.0316 µM
[2] = second compound 0.316 µM, first compound 0.0316 µM
[3] = second compound 1 µM, first compound 0.0316 µM
[4] = second compound 3.16 µM, first compound 0.0316 µM
[5] = second compound 10 µM, first compound 0.0316 µM
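Note: drug exposure lasted seven days after spheroids formed for three days.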
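Throughout, for viability, T/C: percent of DMSO vehicle control viability which is 100%.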

CC(=O)Nc1cccc(-n2c(=O)n(C3CC3)c(=O)c3c(Nc4ccc(I)cc4F)n(C)c(=O)c(C)c32)c1 + C=CC(=O)N1CCN(c2nc(=O)n(-c3c(C)ccnc3C(C)C)c3nc(-c4c(O)cccc4F)c(F)cc23)C(C)C1
0.468 nM: IC50 (second compound 0.316 µM)
0.34 nM: IC50 (second compound 0.1 µM)
0.395 nM: IC50 (second compound 1 µM)
0.235 nM: IC50 (second compound 3.16 µM)
inactive: viability, T/C (second compound 0.1 µM, first compound 0.0001 µM) 90% | viability, T/C (second compound 0.1 µM, first compound 0.000316 µM) 51.6% | viability, T/C (second compound 0.1 µM, first compound 0.001 µM) 27.4% | viability, T/C (second compound 0.1 µM, first compound 0.00316 µM) 18.7% | viability, T/C (second compound 0.1 µM, first compound 0.01 µM) 12.8% | viability, T/C (second compound 0.316 µM, first compound 0.0001 µM) 92% | viability, T/C (second compound 0.316 µM, first compound 0.000316 µM) 60.1% | viability, T/C (second compound 0.316 µM, first compound 0.001 µM) 30.3% | viability, T/C (second compound 0.316 µM, first compound 0.00316 µM) 18.9% | viability, T/C (second compound 0.316 µM, first compound 0.01 µM) 11.9% | viability, T/C (second compound 1 µM, first compound 0.0001 µM) 86.9% | viability, T/C (second compound 1 µM, first compound 0.000316 µM) 54.4% | viability, T/C (second compound 1 µM, first compound 0.001 µM) 31.9% | viability, T/C (second compound 1 µM, first compound 0.00316 µM) 19.6% | viability, T/C (second compound 1 µM, first compound 0.01 µM) 12.1% | viability, T/C (second compound 3.16 µM, first compound 0.0001 µM) 62.1% | viability, T/C (second compound 3.16 µM, first compound 0.000316 µM) 46.4% | viability, T/C (second compound 3.16 µM, first compound 0.001 µM) 26.8% | viability, T/C (second compound 3.16 µM, first compound 0.00316 µM) 17.5% | viability, T/C (second compound 3.16 µM, first compound 0.01 µM) 11.5% | viability, T/C (second compound 10 µM, first compound 0.0001 µM) 23% | viability, T/C (second compound 10 µM, first compound 0.000316 µM) 19.9% | viability, T/C (second compound 10 µM, first compound 0.001 µM) 10.9% | viability, T/C (second compound 10 µM, first compound 0.00316 µM) 11.7%
< 0.1 nM: IC50 (second compound 10 µM)
active: viability, T/C [1] 7.68% | viability, T/C [2] 7.86% | viability, T/C [3] 8.24% | viability, T/C [4] 9.06% | viability, T/C (second compound 10 µM, first compound 0.01 µM) 9.79% | viability, T/C [5] 9.65%

COc1cc(Nc2ncc3c(n2)-c2ccc(Cl)cc2C(c2c(F)cccc2OC)=NC3)ccc1C(=O)O + C=CC(=O)N1CCN(c2nc(=O)n(-c3c(C)ccnc3C(C)C)c3nc(-c4c(O)cccc4F)c(F)cc23)C(C)C1
inactive: viability, T/C [1] 33.5% | viability, T/C (second compound 0.1 µM, first compound 0.1 µM) 34.2% | viability, T/C (second compound 0.1 µM, first compound 0.316 µM) 41.3% | viability, T/C (second compound 0.1 µM, first compound 1 µM) 40.8% | viability, T/C (second compound 0.1 µM, first compound 3.16 µM) 34.8% | viability, T/C (second compound 0.1 µM, first compound 10 µM) 26.4% | viability, T/C [2] 35.9% | viability, T/C (second compound 0.316 µM, first compound 0.1 µM) 33.3% | viability, T/C (second compound 0.316 µM, first compound 0.316 µM) 37.4% | viability, T/C (second compound 0.316 µM, first compound 1 µM) 40.2% | viability, T/C (second compound 0.316 µM, first compound 3.16 µM) 40.3% | viability, T/C (second compound 0.316 µM, first compound 10 µM) 29.9% | viability, T/C [3] 41.8% | viability, T/C (second compound 1 µM, first compound 0.1 µM) 35.6% | viability, T/C (second compound 1 µM, first compound 0.316 µM) 40.1% | viability, T/C (second compound 1 µM, first compound 1 µM) 39.4% | viability, T/C (second compound 1 µM, first compound 3.16 µM) 32.3% | viability, T/C (second compound 1 µM, first compound 10 µM) 30.6% | viability, T/C [4] 36.8% | viability, T/C (second compound 3.16 µM, first compound 0.1 µM) 31.5% | viability, T/C (second compound 3.16 µM, first compound 0.316 µM) 34.8% | viability, T/C (second compound 3.16 µM, first compound 1 µM) 38% | viability, T/C (second compound 3.16 µM, first compound 3.16 µM) 35.2% | viability, T/C (second compound 3.16 µM, first compound 10 µM) 29.5% | viability, T/C [5] 22.9% | viability, T/C (second compound 10 µM, first compound 0.1 µM) 30.9% | viability, T/C (second compound 10 µM, first compound 0.316 µM) 35.2% | viability, T/C (second compound 10 µM, first compound 1 µM) 34.5% | viability, T/C (second compound 10 µM, first compound 3.16 µM) 31.8% | viability, T/C (second compound 10 µM, first compound 10 µM) 30%
< 31.6 nM: IC50 (second compound 0.1 µM) | IC50 (second compound 0.316 µM) | IC50 (second compound 1 µM) | IC50 (second compound 3.16 µM) | IC50 (second compound 10 µM)
